Legend:
Format in all cases: in vivo
Ctenocephalides felis = Ctenocephalides felis oral test; details: 100 ppm, oral via cattle blood, after 2 days
Procedure: Ctenocephalides felis—Oral Test Solvent: dimethyl sulfoxide An appropriate active ingredient formulation is produced by mixing 10 mg of active ingredient with 0.5 ml of dimethyl sulfoxide. Dilution with citrated cattle blood gives the desired concentration. About 20 unfed adult cat fleas (Ctenocephalides felis) are placed into a chamber which is closed at the top and bottom with gauze. Onto the chamber is placed a metal cylinder with its bottom end closed with parafilm. The cylinder contains the blood/active ingredient formulation, which can be imbibed by the fleas through the parafilm membrane. The cylinder is heated to 37° C., while the flea chambers are kept at room temperature. After 2 days, the kill rate in % is determined relative to the untreated control. 100% means that all of the fleas have been killed; 0% means that none of the fleas have been killed.

Musca domestica = Musca domestica test; details: 100 ppm, adult houseflies, after 2 days
Procedure: Musca domestica Test Solvent: dimethyl sulfoxide An appropriate active ingredient formulation is produced by mixing 10 mg of active ingredient with 0.5 ml of dimethyl sulfoxide and diluting the concentrate with water to the desired concentration. Vessels containing a sponge treated with sugar solution and the desired concentration of active compound formulation are populated with 10 adult houseflies (Musca domestica). After 2 days, the kill rate in % is determined relative to the untreated control. 100% means that all of the flies have been killed; 0% means that none of the flies have been killed.

Lucilia cuprina = Lucilia cuprina test; details: 100 ppm, L1 larvae, after 2 days
Procedure: Lucilia cuprina Test Solvent: dimethyl sulfoxide An appropriate active ingredient formulation is produced by mixing 10 mg of active ingredient with 0.5 ml of dimethyl sulfoxide and diluting the concentrate with water to the desired concentration. About 20 L1 larvae of the Australian sheep blowfly (Lucilia cuprina) are transferred into a test vessel containing minced horsemeat and the active ingredient formulation of the desired concentration. After 2 days, the kill rate in % is determined relative to the untreated control. 100% means that all the larvae have been killed; 0% means that no larvae have been killed.

Measured: efficacy (kill rate)

CCS(=O)(=O)c1ccc(-n2ncn(-c3ccc(Cl)cc3)c2=O)nc1-c1nc2cc(C(F)(F)C(F)(F)F)cnc2n1C [Example I-23]
100%: all assays above
